Test results from patent publication US5593656A, “Metal-binding targeted polypeptide constructs” (Cytogen Corporation, priority 1995, dated 1997).

Tests used:
[1] = test system: HT-29 colon carcinoma xenograft tumors; conditions: Tc-99m labeled, i.v., 22 hours after injection
Protocol: Biodistribution and imaging studies were conducted using female Nu/Nu HT-29 xenograft tumor-bearing mice, a model for colon carcinoma. […] Two μg of the test compounds were labeled with 100 μCi of Tc-99m and each was injected into 10 Nu/Nu mice bearing HT-29 tumors on the flank. The organs of interest were removed from half the mice at 3 hr, and the organs of the remaining mice were removed at 22 h. Each set of organs were counted for gamma radiation.
Twenty μg of each construct was dissolved in 20 mM sodium acetate, pH 4.5, at a minimum concentration of 30 μg/mn. The pH was checked and adjusted as necessary. A 50 mCi vial of ^99m TcO4 Na (Syncor) was added to a vial of Glucoscan® (Dupont) in a leaded glass shield using a shielded tuberculin syringe. 100 μL of the resulting solution was dose calibrated, and the volume required for 20 doses of 100 μCi was calculated (ca. 40-45 μL). This amount was divided into two equal parts and added to the two solutions of construct in microfuge tubes and incubated for 1 h at 37° C. Percent chelation was checked by chromatography on ITLC developed with 0.9% saline, and analyzed by autoradiography counter. The two solutions were diluted to 2.2 mL each with 0.9% saline. The diluted solutions werethen divided into numbered tuberculin syringes (200 μL each). […]
Dissected tissues were weighed, and their content of Tc-99m was determined by gamma counting.

[2] = biological target: T1, I-125-GRP binding to NIH-3T3 cells (Mus musculus, UniProt P21729); test: In vitro receptor binding assay: inhibition of binding of I-125-GRP to NIH-3T3 cells; set-up: species or system Murine; conditions: for IC50: […] 125I-GRP, 30 min RT, read-out: IC50, inhibition of binding of labeled GRP to NIH-3T3 cells; for Binding of competing ligand relative to control ligand Neuromedin C: competition with 125I-GRP
T1 construct: Murine NIH-3T3 fibroblast cells (ATCC No. CCL92) were released from flasks; endogenous in cells; host or cells: NIH-3T3 murine fibroblasts (ATCC No. CCL92), whole cells
T1 sequence (P21729 whole entry): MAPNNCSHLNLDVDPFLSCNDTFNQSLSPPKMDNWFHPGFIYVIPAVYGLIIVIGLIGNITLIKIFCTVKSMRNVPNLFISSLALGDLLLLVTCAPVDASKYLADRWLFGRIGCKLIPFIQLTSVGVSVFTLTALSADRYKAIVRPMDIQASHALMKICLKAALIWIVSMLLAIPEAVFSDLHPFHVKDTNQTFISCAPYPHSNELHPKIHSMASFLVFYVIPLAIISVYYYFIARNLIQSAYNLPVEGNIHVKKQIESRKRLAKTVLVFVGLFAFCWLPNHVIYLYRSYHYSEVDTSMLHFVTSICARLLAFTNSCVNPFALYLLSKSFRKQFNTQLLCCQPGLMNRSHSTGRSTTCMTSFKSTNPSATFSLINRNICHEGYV
Protocol: Murine NIH-3T3 fibroblast cells (ATCC No. CCL92) were released from flasks with EDTA harvest buffer, consisting of 0.6 mm EDTA, 25 mm PBS (8 g NaCl, 0.2 g KCl, 1.44 g Na2 PO4, 0.2 g KH2 PO4 per liter), pH 7.4, 37° C., by incubation for 15 min.
The cells were washed twice with Assay Buffer (50 mM Tris-HCl, 100 mM NaCl, 0.1% BSA, 0.1 mg/mL bacitracin, 0.05 mg/mL aprotinin, 1 mM PMSF), pH 7.4, 4° C. and resuspended at a density of 3×10^6 cells/mL.
A 0.5 mL Eppendorf tube was prepared for each assay point by incubating the tube overnight with a blocking solution of 1% BSA, 50 mM Tris. HCl, 100 mM NaCl, pH 7.4. The blocking solution was removed.
Each tube was charged with 4×10^4 cells. […] Three control tubes with no cells or competitor were prepared for measurement of total counts added.
The samples were incubated for 30 min at RT. The contents of each tube were transferred into the wells of a 96-well filter bottom plate (Millipore Multiscreen, Arlington Heights, Mass.) and filtered under moderate vacuum (water aspirator). Each filter was washed three times by filling each well with ice cold PBS, Ph 7.4, 0.1% BSA. The plate was allowed to dry. Dried filters were placed into gamma-counter tubes (12×75 mm glass). The radioactivity on each filter and in the control tubes was counted using a LKB gamma counter. The bound/total added for each assay tube was calculated.

Benzoic acid bis-thiosemicarbazide derived from N-acetyl-Neuromedin C-hydrazide [Compound 6]
Localization to HT-29 tumors [1]: evident
IC50 [2]: 43.3 nM
Binding of competing ligand relative to control ligand Neuromedin C [2]: within an order of magnitude of the control ligand Neuromedin C

Benzoic acid bis-thiourea derived from Neuromedin-C [Compound 3]
Localization to HT-29 tumors [1]: evident
IC50 [2]: 10.6 nM
Binding of competing ligand relative to control ligand Neuromedin C [2]: within an order of magnitude of the control ligand Neuromedin C
